{
  "source": "ChEMBL document CHEMBL4765282",
  "about": "“Design, synthesis and biological evaluation of 1H-pyrazolo [3,4-d]pyrimidine derivatives as PAK1 inhibitors that trigger apoptosis, ER stress and anti-migration effect in MDA-MB-231 cells” (Eur J Med Chem, 2020)",
  "note": "pIC50: −log10 of the molar value. The source made the active and inactive calls. The rule behind the calls is not given here.",
  "data": [
    {"target": "Serine/threonine-protein kinase PAK 1 (Homo sapiens, UniProt Q13153)", "sequence (Q13153 whole entry)": "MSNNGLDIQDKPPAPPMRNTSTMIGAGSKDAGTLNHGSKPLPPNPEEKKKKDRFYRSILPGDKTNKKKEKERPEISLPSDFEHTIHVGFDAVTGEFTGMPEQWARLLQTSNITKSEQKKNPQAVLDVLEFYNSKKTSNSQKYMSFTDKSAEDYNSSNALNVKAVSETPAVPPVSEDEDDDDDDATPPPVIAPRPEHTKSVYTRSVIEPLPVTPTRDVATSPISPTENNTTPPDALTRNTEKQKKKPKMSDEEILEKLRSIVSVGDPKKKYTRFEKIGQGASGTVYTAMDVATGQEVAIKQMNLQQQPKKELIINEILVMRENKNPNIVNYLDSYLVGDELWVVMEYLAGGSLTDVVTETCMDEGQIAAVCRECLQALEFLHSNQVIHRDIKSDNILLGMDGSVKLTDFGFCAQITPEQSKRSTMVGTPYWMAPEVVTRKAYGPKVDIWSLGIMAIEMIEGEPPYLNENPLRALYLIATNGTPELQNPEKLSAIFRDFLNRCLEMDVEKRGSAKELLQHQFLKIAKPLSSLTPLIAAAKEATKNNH", "assay": "Inhibition of PAK1 (unknown origin) […] measured after 40 mins by ADP-glo kinase assay", "values": [
      {"smiles": "O=C(Nc1ccc(F)cc1F)N1CCC(Nc2ncnc3[nH]ncc23)CC1", "pIC50": 5.29},
      {"smiles": "O=C(Nc1ccc(Br)cc1)N1CCC(Nc2ncnc3[nH]ncc23)CC1", "pIC50": 4.75},
      {"smiles": "Cc1ccc(NC(=O)NC2CCN(c3ncnc4[nH]ncc34)CC2)cc1", "pIC50": 5.33},
      {"smiles": "O=C(c1ccccc1Cl)N1CCC(Nc2ncnc3[nH]ncc23)CC1", "pIC50": 5.16},
      {"smiles": "Cc1cccc(C)c1NC(=S)N1CCC(Nc2ncnc3[nH]ncc23)CC1", "pIC50": 5.13},
      {"smiles": "O=C(Nc1cccc(Cl)c1)N1CCC(Nc2ncnc3[nH]ncc23)CC1", "pIC50": 5.14},
      {"smiles": "S=C(Nc1cccc2ccccc12)N1CCC(Nc2ncnc3[nH]ncc23)CC1", "pIC50": "< 4.30"},
      {"smiles": "O=C(c1ccc(F)cc1)N1CCC(Nc2ncnc3[nH]ncc23)CC1", "pIC50": 5.11},
      {"smiles": "FC(F)(F)c1cc(NC(=S)N2CCC(Nc3ncnc4[nH]ncc34)CC2)cc(C(F)(F)F)c1", "pIC50": 5.06},
      {"smiles": "COc1ccc(NC(=O)NC2CCN(c3ncnc4[nH]ncc34)CC2)cc1", "pIC50": 5.20},
      {"smiles": "Cc1cc(C)c(C(=O)N2CCC(Nc3ncnc4[nH]ncc34)CC2)c(C)c1", "pIC50": 4.51},
      {"smiles": "O=C(Nc1ccccc1Cl)NC1CCN(c2ncnc3[nH]ncc23)CC1", "pIC50": 6.25},
      {"smiles": "O=C(NC1CCN(c2ncnc3[nH]ncc23)CC1)c1ccccc1Cl", "pIC50": 5.28},
      {"smiles": "O=C(Nc1ccc(C(F)(F)F)cc1)NC1CCN(c2ncnc3[nH]ncc23)CC1", "pIC50": 5.15},
      {"smiles": "O=C(c1ccc(Br)cc1)N1CCC(Nc2ncnc3[nH]ncc23)CC1", "pIC50": 4.53},
      {"smiles": "O=C(c1ccc(Cl)cc1)N1CCC(Nc2ncnc3[nH]ncc23)CC1", "pIC50": 5.03},
      {"smiles": "O=C(Nc1cccc2ccccc12)N1CCC(Nc2ncnc3[nH]ncc23)CC1", "pIC50": "< 4.30"},
      {"smiles": "Cc1cccc(C)c1NC(=O)N1CCC(Nc2ncnc3[nH]ncc23)CC1", "pIC50": 5.20},
      {"smiles": "Cc1ccc(C(=O)N2CCC(Nc3ncnc4[nH]ncc34)CC2)cc1", "pIC50": 4.40},
      {"smiles": "Cc1ccccc1C(=O)NC1CCN(c2ncnc3[nH]ncc23)CC1", "pIC50": 5.20},
      {"smiles": "O=C(Nc1ccc(Cl)cc1Cl)N1CCC(Nc2ncnc3[nH]ncc23)CC1", "pIC50": 5.26},
      {"smiles": "O=C(Nc1ccccc1Cl)N1CCC(Nc2ncnc3[nH]ncc23)CC1", "pIC50": 5.28},
      {"smiles": "Cc1ccc(NC(=S)N2CCC(Nc3ncnc4[nH]ncc34)CC2)cc1", "pIC50": 4.71},
      {"smiles": "O=C(NC1CCN(c2ncnc3[nH]ncc23)CC1)c1ccc(Br)cc1", "pIC50": 4.79},
      {"smiles": "O=C(NC1CCN(c2ncnc3[nH]ncc23)CC1)c1ccc(C(F)(F)F)cc1", "pIC50": 5.24},
      {"smiles": "O=C(c1ccc(C(F)(F)F)cc1)N1CCC(Nc2ncnc3[nH]ncc23)CC1", "pIC50": "< 4.30"},
      {"smiles": "O=C(c1cccc(Cl)c1Cl)N1CCC(Nc2ncnc3[nH]ncc23)CC1", "pIC50": 5.17},
      {"smiles": "COc1ccc(NC(=S)N2CCC(Nc3ncnc4[nH]ncc34)CC2)cc1", "pIC50": 4.82},
      {"smiles": "O=C(Nc1cc(C(F)(F)F)cc(C(F)(F)F)c1)N1CCC(Nc2ncnc3[nH]ncc23)CC1", "pIC50": 5.03},
      {"smiles": "Cc1cc(C)c(C(=O)NC2CCN(c3ncnc4[nH]ncc34)CC2)c(C)c1", "pIC50": 5.17},
      {"smiles": "O=C(NC1CCN(c2ncnc3[nH]ncc23)CC1)c1cccc(C(F)(F)F)c1", "pIC50": 5.60},
      {"smiles": "O=C(Nc1ccc(F)cc1F)NC1CCN(c2ncnc3[nH]ncc23)CC1", "pIC50": 5.94},
      {"smiles": "Cc1ccc(NC(=O)N2CCC(Nc3ncnc4[nH]ncc34)CC2)cc1", "pIC50": 4.76},
      {"smiles": "O=C(NC1CCN(c2ncnc3[nH]ncc23)CC1)c1cccc(Cl)c1Cl", "pIC50": 5.38},
      {"smiles": "O=C(Nc1cccc(Cl)c1)NC1CCN(c2ncnc3[nH]ncc23)CC1", "pIC50": 5.91},
      {"smiles": "COc1ccc(NC(=O)N2CCC(Nc3ncnc4[nH]ncc34)CC2)cc1", "pIC50": 4.86},
      {"smiles": "O=C(Nc1ccc(Cl)c(Cl)c1)NC1CCN(c2ncnc3[nH]ncc23)CC1", "pIC50": 5.64},
      {"smiles": "O=C(Nc1cccc2ccccc12)NC1CCN(c2ncnc3[nH]ncc23)CC1", "pIC50": 4.95},
      {"smiles": "O=C(Nc1ccc(C(F)(F)F)cc1)N1CCC(Nc2ncnc3[nH]ncc23)CC1", "pIC50": 4.80},
      {"smiles": "O=C(NC1CCN(c2ncnc3[nH]ncc23)CC1)c1ccc(F)cc1", "pIC50": 5.34},
      {"smiles": "S=C(Nc1cccc(Cl)c1)N1CCC(Nc2ncnc3[nH]ncc23)CC1", "pIC50": 5.10},
      {"smiles": "COc1ccc(C(=O)NC2CCN(c3ncnc4[nH]ncc34)CC2)cc1", "pIC50": 5.05},
      {"smiles": "Cc1ccc(C(=O)NC2CCN(c3ncnc4[nH]ncc34)CC2)cc1", "pIC50": 5.25},
      {"smiles": "Cc1ccccc1C(=O)N1CCC(Nc2ncnc3[nH]ncc23)CC1", "pIC50": 4.48},
      {"smiles": "O=C(c1cccc(C(F)(F)F)c1)N1CCC(Nc2ncnc3[nH]ncc23)CC1", "pIC50": "< 4.30"},
      {"smiles": "S=C(Nc1ccccc1Cl)N1CCC(Nc2ncnc3[nH]ncc23)CC1", "pIC50": 5.18},
      {"smiles": "O=C(Nc1ccc(Cl)c(Cl)c1)N1CCC(Nc2ncnc3[nH]ncc23)CC1", "pIC50": 4.96},
      {"smiles": "Cc1cccc(C)c1NC(=O)NC1CCN(c2ncnc3[nH]ncc23)CC1", "pIC50": 5.67},
      {"smiles": "O=C(Nc1ccc(Br)cc1)NC1CCN(c2ncnc3[nH]ncc23)CC1", "pIC50": 5.39}
    ]},
    {"tested_on": "MDA-MB-231", "assay": "Down regulation of PAK1 expression in human MDA-MB-231 cells at 5 uM measured after 24 hrs by immunofluorescence analysis", "assay_type": "functional, cell-based", "values": [
      {"smiles": "CCn1c(=O)c(-c2ccc(-c3cncs3)cc2Cl)cc2cnc(Nc3ccc(N4CCN(C)CC4)cc3)nc21", "Activity": "Active"}
    ]}
  ]
}
